Test results as given in the supplement of paper PMC10307832.

How the values were obtained:
Experiment in all cases: relative viability (nuclei count vs DMSO), 5 days (fraction); higher = more cells survive
[1] = compound: CC[C@@H](C)CNCC(=O)N1CCC2=C([C@@H]1COC3=CC=CC(=C3)C)C=CS2 [RU-SKI 43] + CC(C)C[C@H](NC(=O)[C@H](Cc1ccccc1)NC(=O)c1cnccn1)B(O)O [Bortezomib] (partner 0.002 µM)
How it was run: (§1)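 Relative viability equals treated-well nuclei counts divided by vehicle-well nuclei counts. Counts came from 4× images of lung cancer cell lines grown in 1536-well plates for 5 days after pin-tool dosing on the day after seeding. Dosing used one drug alone or a fixed anchor-drug dose plus five library-drug doses (not always all listed) in √10 steps, and values are medians of duplicate plates.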

[2] = compound: CC[C@@H](C)CNCC(=O)N1CCC2=C([C@@H]1COC3=CC=CC(=C3)C)C=CS2 [RU-SKI 43] + C[C@]1(O)C[C@@H](c2nc(-c3ccc4ccc(-c5ccccc5)nc4c3)c3c(N)nccn32)C1 [Linsitinib] (partner 1 µM)
How it was run: as §1

[3] = compound: CC[C@@H](C)CNCC(=O)N1CCC2=C([C@@H]1COC3=CC=CC(=C3)C)C=CS2 [RU-SKI 43] + N=C(N)NC(=N)NCCc1ccccc1 [Phenformin] (partner 250 µM)
How it was run: as §1

[4] = compound: Cn1cc(-c2cnc3ccc4ccc(CS(=O)(=O)NCc5ccccn5)cc4c(=O)c3c2)cn1 [MK-8033] + Cc1nc(Nc2ncc(C(=O)Nc3c(C)cccc3Cl)s2)cc(N2CCN(CCO)CC2)n1 [Dasatinib] (partner 0.075 µM)
How it was run: as §1

Row | Cell Line | relative viability ([1]; first compound 0.1 µM) | relative viability ([1]; first compound 0.3162 µM) | relative viability ([1]; first compound 1 µM) | relative viability ([1]; first compound 3.162 µM) | relative viability ([1]; first compound 10 µM) | relative viability ([2]; first compound 0.1 µM) | relative viability ([2]; first compound 0.3162 µM) | relative viability ([2]; first compound 1 µM) | relative viability ([2]; first compound 3.162 µM) | relative viability ([2]; first compound 10 µM) | relative viability ([3]; first compound 0.1 µM) | relative viability ([3]; first compound 0.3162 µM) | relative viability ([3]; first compound 1 µM) | relative viability ([3]; first compound 3.162 µM) | relative viability ([3]; first compound 10 µM) | relative viability ([4]; first compound 0.02 µM) | relative viability ([4]; first compound 0.06325 µM) | relative viability ([4]; first compound 0.2 µM) | relative viability ([4]; first compound 0.6325 µM) | relative viability ([4]; first compound 2 µM)
1 | NCI-H3122 | 1.06 | 0.924 | 0.993 | 1.02 | 0.978 | 0.992 | 1.05 | 1.09 | 1.12 | 1.08 | 0.394 | 0.376 | 0.411 | 0.379 | 0.37 | 0.734 | 0.655 | 0.586 | 0.814 | 0.876
2 | RERF-LC-KJ | 1.12 | 1.39 | 1.17 | 1.2 | 1.2 | 0.946 | 1.04 | 0.915 | 0.943 | 0.895 | 0.374 | 0.418 | 0.347 | 0.417 | 0.346 | 0.648 | 0.742 | 0.752 | 0.631 | 0.746
3 | ABC-1 | 0.286 | 0.351 | 0.35 | 0.285 | 0.312 | 0.924 | 0.775 | 0.801 | 0.569 | 0.845 | 0.189 | 0.239 | 0.227 | 0.255 | 0.213 | 0.735 | 0.434 | 0.501 | 0.491 | 0.61
4 | HCC-15 | 1.12 | 1.28 | 1.2 | 1.08 | 1.11 | 0.964 | 1.1 | 0.988 | 0.946 | 0.882 | 0.49 | 0.53 | 0.55 | 0.511 | 0.521 | 0.639 | 0.541 | 0.542 | 0.6 | 0.616
